The results in this text go back to patent publication US11642332B2, “(2R,4R)-5-(5′-chloro-2′-fluorobiphenyl-4-yl)-2-hydroxy-4-[(5-methyloxazole-2-carbonyl)amino]pentanoic acid” (THERAVANCE BIOPHARMA R&D IP, LLC, priority 2015, dated 2023).

The nature of data set [1]: IV/PO pharmacokinetic study in dogs. As to conditions: dog; for AUC(0-t) / bioavailability: male, beagle, plasma; for AUC(0-t): read-out: AUClast Mean; for bioavailability: PO vs IV AUClast. The format is in vivo, male beagle dogs. More on the design: AUC(0-t): concentration or dose not given beside the values. On the procedure:
(§1) Each rat or dog PK study began with formulation of the test compound. Appropriate masses of each test compound were added into a volume of vehicle (e.g. 5% sodium bicarbonate, 5% dextrose in H2O) such that the final concentration of each compound was appropriate to be dosed at 2 mL/kg. Although a homogenous suspension were acceptable for oral dosing, intravenous dosing solutions were sterile-filtered (0.2 μm) prior to dosing to ensure no particulates were administered.
In the dog study, male beagle dogs (3 per route) housed at Agilux Laboratories (Worcester, Mass.) and weighing between 7-12 kg received either a single oral gavage or a single intravenous (via indwelling catheter) dose of the dosing solution. The final dose was typically 0.1-2 mg/kg. Serial blood samples were harvested via direct venipuncture at 3 minutes, 15 minutes, 30 minutes, 1 hour, 2 hours, 4 hours, 6 hours, 8 hours, 12 hours, and 24 hours post-dose. All samples were collected manually into microtainer tubes containing EDTA as the anticoagulant and were processed to plasma by refrigerated centrifugation.
(§2) Plasma samples were extracted with 3 volumes of MeCN containing a suitable internal standard. Extracts were reconstituted into 3 volumes of water containing 1% formic acid, and analyzed via HPLC-coupled MS/MS. Plasma concentration-time data were analyzed using the Phoenix software (Pharsight Corp., St. Louis, Mo.) to calculate pharmacokinetic parameters.
(§3) Plasma clearance was determined from the intravenous arm of the study, and represents the rate at which plasma is cleared of drug. It is equal to the dose divided by the area under the plasma concentration-time curve. In addition to plasma clearance, it is also essential for an orally administered drug to reach efficacious systemic levels following oral delivery. Oral bioavailability is a measurement of plasma exposures following oral administration relative to exposures following intravenous administration.

The target of a further data set is T1, NEP (Rattus norvegicus, UniProt P07861).
T1 construct: Pre-cannulated male Sprague-Dawley rats (3 per compound evaluated) between 8 and 10 weeks of age were obtained from Harlan Laboratories; from tissue; host or cells: whole animal: conscious male Sprague-Dawley rats (Harlan Laboratories)
T1 sequence (P07861 1-750): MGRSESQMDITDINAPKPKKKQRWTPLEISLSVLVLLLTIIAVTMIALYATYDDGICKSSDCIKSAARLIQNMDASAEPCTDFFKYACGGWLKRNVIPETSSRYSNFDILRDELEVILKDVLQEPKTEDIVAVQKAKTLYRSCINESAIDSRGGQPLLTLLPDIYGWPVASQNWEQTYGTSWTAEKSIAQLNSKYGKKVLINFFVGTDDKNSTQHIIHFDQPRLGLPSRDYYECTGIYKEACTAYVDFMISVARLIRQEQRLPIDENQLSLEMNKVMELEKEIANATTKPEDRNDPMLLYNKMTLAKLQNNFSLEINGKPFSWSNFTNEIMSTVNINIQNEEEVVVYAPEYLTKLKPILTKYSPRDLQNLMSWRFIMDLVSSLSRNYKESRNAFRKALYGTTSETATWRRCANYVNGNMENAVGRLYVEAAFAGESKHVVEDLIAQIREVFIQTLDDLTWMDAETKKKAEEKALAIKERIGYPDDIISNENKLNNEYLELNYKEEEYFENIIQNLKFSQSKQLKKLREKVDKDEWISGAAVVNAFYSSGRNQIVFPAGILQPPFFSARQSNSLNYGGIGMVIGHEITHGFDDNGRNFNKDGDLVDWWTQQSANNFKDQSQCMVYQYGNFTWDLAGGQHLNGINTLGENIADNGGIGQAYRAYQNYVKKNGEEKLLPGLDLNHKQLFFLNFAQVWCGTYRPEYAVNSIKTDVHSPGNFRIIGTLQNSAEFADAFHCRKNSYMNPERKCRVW
As to the kind of experiment: PK-PD assay for NEP activity in conscious normotensive Sprague-Dawley rats (plasma cGMP after ANP bolus). It counts as in vivo, male Sprague-Dawley rats. As to conditions: rat plasma, 3 mg/kg oral, 15 min after IV ANP bolus (30 μg/kg); average of three determinations. Here is the method:
Appropriate masses of each test compound were added into a volume of vehicle (e.g. 5% sodium bicarbonate, 5% dextrose in H2O) such that the final concentration of each compound was appropriate to be dosed at 2 mL/kg. Note that a homogenous suspension was deemed to be acceptable for oral dosing.
Pre-cannulated male Sprague-Dawley rats (3 per compound evaluated) between 8 and 10 weeks of age were obtained from Harlan Laboratories (Indianapolis, Ind.). Rats received a single oral gavage of the dosing solution. The final dose was typically in the range of 3-30 mg/kg. Serial blood samples were harvested via the cannula implanted in the jugular vein at 3 minutes, 15 minutes, 35 minutes, 45 minutes, 1 hour, 2 hours, 4 hours, 6 hours, and 24 hours post-dose. Samples were collected into microtainer tubes containing EDTA as the anticoagulant and were processed to plasma by refrigerated centrifugation. Fifteen minutes prior to the 45 minute, 2 hour, 4 hour, 6 hour, and 24 hour samples, an IV bolus (30 μg/kg) of Atrial Natriuretic Peptide (ANP) was administered. […] Since binding of ANP to its receptor leads to activation of guanylyl cyclase and subsequent production of cyclic guanosine monophosphate (cGMP), the observation of elevated levels of cGMP (>20 nM) in plasma 15 minutes after the IV administration of the ANP bolus was interpreted as evidence of ongoing neprilysin inhibition. Elevated levels plasma cGMP levels 24 hours after dosing is an indicator of the duration pharmacologic effect, analogous to plasma clearance values as indicators of pharmacokinetic persistence.
Plasma samples were extracted with 3 volumes of MeCN containing a suitable internal standard. Extracts were reconstituted into 3 volumes of water containing 1% formic acid. Plasma cGMP and test compound concentrations were quantified in plasma samples by HPLC-coupled mass spectrometric detection.

A short description of data set [2]: IV/PO pharmacokinetic study in rats. It counts as in vivo, male Sprague-Dawley rats. The arrangement: AUC(0-t): concentration or dose not given beside the values. As to conditions: rat; for AUC(0-t) / bioavailability: male, Sprague-Dawley, plasma; for AUC(0-t): read-out: AUClast Mean; for bioavailability: PO vs IV AUClast; for CLlast Mean: dose divided by AUClast. On the procedure:
as §1
In the rat study, pre-cannulated male Sprague-Dawley rats (3 per route) between 8 and 10 weeks of age were obtained from Harlan Laboratories (Indianapolis, Ind.). Rats received either a single oral gavage or a single intravenous (via lateral tail vein) dose of the dosing solution. The final dose was typically 0.5-3 mg/kg. Serial blood samples were harvested via the cannula implanted in the jugular vein at 3 minutes, 15 minutes, 30 minutes, 1 hour, 2 hours, 4 hours, 6 hours, and 24 hours post-dose. Sampling was performed either manually or using automated blood samplers. Samples were collected into microtainer tubes containing EDTA as the anticoagulant and were processed to plasma by refrigerated centrifugation.
as §2, §3

Data set [3] concerns the target T2, human neprilysin (EC 3.4.24.11; NEP) (Homo sapiens, UniProt P08473).
T2 construct: purchased R&D Systems 1182-ZN
As to the kind of experiment: In vitro assay for the quantitation of inhibitor potency at human NEP. It counts as biochemical. The settings on record: recombinant human NEP, fluorogenic peptide substrate 10 μM, 37° C.; read-out: pKi at human NEP (converted). Here is the method: The inhibitory activity at human neprilysin (EC 3.4.24.11; NEP) was determined as follows.
Recombinant human NEP was obtained commercially (R&D Systems, Minneapolis, Minn., catalog number 1182-ZN). The fluorogenic peptide substrate Mca-D-Arg-Arg-Leu-Dap-(Dnp)-OH (Medeiros et al. (1997) Braz. J. Med. Biol. Res. 30:1157-62; Anaspec, San Jose, Calif.) was used.
The assay was performed in 384-well white opaque plates at 37° C. using the fluorogenic peptide substrate at a concentration of 10 μM in Assay Buffer (50 mM HEPES, pH 7.5, 100 mM NaCl, 0.01% polyethylene glycol sorbitan monolaurate (Tween-20), 10 μM ZnSO4).
Test compounds were assayed over the range of concentrations from 10 μM to 20 pM. Test compounds were added to the enzyme and incubated for 30 minute at 37° C. prior to initiating the reaction by the addition of substrate. Reactions were terminated after 20 minutes of incubation at 37° C. by the addition of glacial acetic acid to a final concentration of 3.6% (v/v).
Plates were read on a fluorometer with excitation and emission wavelengths set to […]. Inhibition constants were obtained by nonlinear regression of the data using the equation (GraphPad Software, Inc., San Diego, Calif.): v=v0/[1+(I/K′)] where v is the reaction rate, v0 is the uninhibited reaction rate, I is the inhibitor concentration and K′ is the apparent inhibition constant.
The compounds were tested in this assay and found to have pKi values at human NEP as follows.

A short description of data set [4]: Dynamic moisture sorption (DMS) assessment. It counts as physicochemical. On the procedure: DMS measurements were performed using a VTI atmospheric microbalance, SGA-100 system (VTI Corp., Hialeah, Fla. 33016). A weighed sample was used and the humidity was lowest possible value (close to 0% relative humidity) at the start of the analysis. The DMS analysis consisted of a scan rate of 5% relative humidity/step over the full humidity range of 5-90%. The DMS run was performed isothermally at 25° C.

T2 sequence (P08473 52-750 limits assumed): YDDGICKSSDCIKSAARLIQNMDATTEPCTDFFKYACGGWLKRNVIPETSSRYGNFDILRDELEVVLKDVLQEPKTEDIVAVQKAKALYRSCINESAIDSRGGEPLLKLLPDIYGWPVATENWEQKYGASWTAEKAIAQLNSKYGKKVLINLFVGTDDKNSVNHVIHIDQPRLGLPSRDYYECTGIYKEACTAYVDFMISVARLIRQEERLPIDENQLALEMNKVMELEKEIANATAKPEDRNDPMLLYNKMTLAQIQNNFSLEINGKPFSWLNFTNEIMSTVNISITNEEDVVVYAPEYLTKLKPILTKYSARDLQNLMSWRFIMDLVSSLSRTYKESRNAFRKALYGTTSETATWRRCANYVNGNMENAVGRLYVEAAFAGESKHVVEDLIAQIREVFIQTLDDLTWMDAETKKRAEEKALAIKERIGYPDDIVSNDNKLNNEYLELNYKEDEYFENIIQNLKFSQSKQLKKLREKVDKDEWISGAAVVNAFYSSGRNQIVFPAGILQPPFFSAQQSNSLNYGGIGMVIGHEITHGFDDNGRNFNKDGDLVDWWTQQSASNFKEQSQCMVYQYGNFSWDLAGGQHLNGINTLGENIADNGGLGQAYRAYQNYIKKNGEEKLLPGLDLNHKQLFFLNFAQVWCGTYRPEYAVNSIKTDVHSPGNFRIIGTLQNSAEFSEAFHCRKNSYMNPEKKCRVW

For orientation: bioavailability means the share of a dose that reaches the circulation, judged against a reference dose that is usually intravenous. Take `COc1cc(C(=O)N[C@H](Cc2ccc(-c3cc(Cl)ccc3F)cc2)C[C@@H](O)C(=O)O)on1` [Comparison Compound C2, (2R,4R)-5-(5′-Chloro-2′-fluorobiphenyl-4-yl)-2-hydroxy-4-[(3-methoxyisoxazole-5-carbonyl)amino]pentanoic Acid]: the “CLlast Mean” value in data set [1] (IV) came out at 10.8 mL/min/kg; in data set [2] (IV), 28.3 mL/min/kg. The AUC(0-t) in data set [1] (IV) worked out at 160 ng·h/mL; in data set [1] (PO), 160 ng·h/mL; in data set [2] (IV), 480 ng·h/mL; in data set [2] (PO) it was 110 ng·h/mL. In addition, the bioavailability in data set [1] was 99%; in data set [2], 20%. Further, at NEP, the “cGMP Concentration 24 hours After Dosing Mean” value worked out at 45 nM. The Ki in data set [3] was 0.126 nM.
Take `CCc1ncc(C(=O)N[C@H](Cc2ccc(-c3cc(Cl)ccc3F)cc2)C[C@@H](C)C(=O)O)o1` [Comparison Compound C3, (2R,4S)-5-(5′-Chloro-2′-fluorobiphenyl-4-yl)-4-[(2-ethyloxazole-5-carbonyl)amino]-2-methylpentanoic Acid]: the “CLlast Mean” value in data set [1] (IV) was 9.83 mL/min/kg; in data set [2] (IV), 10 mL/min/kg. Besides, the AUC(0-t) in data set [1] (IV) was determined as 170 ng·h/mL; in data set [1] (PO), 130 ng·h/mL; in data set [2] (IV), 1500 ng·h/mL; in data set [2] (PO), 880 ng·h/mL. For the same compound, the bioavailability stood at 64% in data set [1] and 60% in data set [2]. Further, the “cGMP Concentration 24 hours After Dosing Mean” value at NEP is on record as 47 nM. In data set [3], the Ki is 0.794 nM.
Regarding `C[C@H](C[C@@H](Cc1ccc(-c2cc(Cl)ccc2F)cc1)NC(=O)c1cnco1)C(=O)O` [Comparison Compound C4, (2R,4S)-5-(5′-Chloro-2′-fluorobiphenyl-4-yl)-2-methyl-4-[(oxazole-5-carbonyl)amino]pentanoic Acid], the figures for the “CLlast Mean” value in data set [1] (IV) and in data set [2] (IV) were 25.7 mL/min/kg and 11.2 mL/min/kg, respectively. The AUC(0-t) in data set [1] (IV) is 70 ng·h/mL; in data set [1] (PO), 30 ng·h/mL; in data set [2] (IV), 830 ng·h/mL; in data set [2] (PO) it was 500 ng·h/mL. Also, the bioavailability amounted to 42% in data set [1] and 60% in data set [2]. Also, the “cGMP Concentration 24 hours After Dosing Mean” value on NEP worked out at 53 nM. Moreover, the Ki in data set [3] was 0.501 nM.
With `Cc1cnc(C(=O)N[C@H](Cc2ccc(-c3cc(Cl)ccc3F)cc2)C[C@@H](O)C(=O)O)o1` [Compound 1′, (2R,4R)-5-(5′-Chloro-2′-fluorobiphenyl-4-yl)-2-hydroxy-4-[(5-methyloxazole-2-carbonyl)amino]pentanoic Acid], the total moisture gain result in data set [4] (5-70% relative humidity, 25° C.) is recorded as “less than 0.025 % by weight”; in data set [4] (5-90% relative humidity, 25° C.), “less than 0.235 % by weight”. Besides, the “hygroscopicity (DMS isotherm)” value in data set [4] (25° C.) is given as “non-hygroscopic solid”. In addition, in data set [4] (after two sorption-desorption cycles), the “solid form (PXRD) after sorption-desorption cycles” value is “no change in form”.
